In test [1] the target is Cyclin-dependent kinase 9 (Homo sapiens, UniProt P50750). The test is described as follows: Inhibition of CDK9 (unknown origin) incubated for 1 hr by fluorescent polarisation based assay.
Test [2] deals with MCF7. Nature of the test: cells. Particulars: Homo sapiens, MCF7, 72 h.
Description: Antiproliferative activity against human MCF7 cells incubated for 72 hrs by MTT assay
The nature of test [3]: Degradation of ER in human MCF7 cells. It counts as cell-based.
For the next test, the system named is HT-29. The test is described as follows: Cytotoxicity against human HT-29 cells incubated for 72 hrs by CCK-8 assay. The test is classed as functional, cell-based. To be noted: HT-29, 72 h.
Test [4] deals with T1, 3-hydroxy-3-methylglutaryl-coenzyme A reductase (Homo sapiens, UniProt P04035).
T1 sequence (P04035 whole entry): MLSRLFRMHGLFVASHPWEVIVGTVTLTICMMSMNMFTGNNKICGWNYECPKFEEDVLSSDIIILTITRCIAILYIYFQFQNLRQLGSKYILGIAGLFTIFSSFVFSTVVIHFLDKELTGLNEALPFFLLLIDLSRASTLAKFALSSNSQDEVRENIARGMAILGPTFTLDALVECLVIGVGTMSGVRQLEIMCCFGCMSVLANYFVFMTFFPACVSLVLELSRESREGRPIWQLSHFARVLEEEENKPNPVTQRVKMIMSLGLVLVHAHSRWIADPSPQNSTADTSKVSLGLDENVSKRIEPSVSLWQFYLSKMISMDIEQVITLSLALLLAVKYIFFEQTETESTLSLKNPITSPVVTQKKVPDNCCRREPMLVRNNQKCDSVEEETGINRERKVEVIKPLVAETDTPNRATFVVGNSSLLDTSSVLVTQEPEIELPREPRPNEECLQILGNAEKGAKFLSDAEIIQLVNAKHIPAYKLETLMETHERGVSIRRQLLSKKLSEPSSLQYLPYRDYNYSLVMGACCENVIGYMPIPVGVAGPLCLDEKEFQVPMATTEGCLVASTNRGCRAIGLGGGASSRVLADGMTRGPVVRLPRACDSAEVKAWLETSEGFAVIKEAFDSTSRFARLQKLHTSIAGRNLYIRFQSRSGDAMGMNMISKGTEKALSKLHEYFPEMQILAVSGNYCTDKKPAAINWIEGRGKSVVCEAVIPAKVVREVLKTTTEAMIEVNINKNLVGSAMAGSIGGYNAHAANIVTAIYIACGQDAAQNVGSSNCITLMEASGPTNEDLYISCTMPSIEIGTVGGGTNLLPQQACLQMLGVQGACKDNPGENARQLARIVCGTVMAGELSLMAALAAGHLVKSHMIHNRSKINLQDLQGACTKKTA
Nature of the test: Degradation of HMGCR (unknown origin).

Test [5] addresses von Hippel-Lindau disease tumor suppressor/Estrogen receptor (Homo sapiens, UniProt P03372+P40337). The test is described as follows: PROTAC activity at VHL/ERalpha in human MCF7 cells assessed as degradation of ERalpha. The test is classed as cell-based.
Test [6] addresses von Hippel-Lindau disease tumor suppressor/G-protein coupled estrogen receptor 1 (Homo sapiens, UniProt Q99527+P40337). Nature of the test: PROTAC activity at VHL/GPER (unknown origin) assessed as degradation of GPER. It counts as protein assay.
Test [7] deals with MCF7. The test is described as follows: Cytotoxicity against human MCF7 cells by inducing cell cycle arrest incubated for 30 mins measured by FacScallibur flow cytometric analysis. Particulars: MCF7, 0.5 h. The test is classed as functional, cell-based.
The next test relates to SK-BR-3. Nature of the test: Cytotoxicity against human SK-BR-3 cells by inducing cell cycle arrest incubated for 30 mins measured by FacScallibur flow cytometric analysis. It counts as functional, cell-based. Particulars: SK-BR-3, 0.5 h.
Test [8] deals with A549. The test is described as follows: Cytotoxicity against human A549 cells incubated for 24 hrs by MTT assay. To be noted: A549, 24 h. It counts as functional, cell-based.
The subject of test [9] is Huh-7. Nature of the test: Cytotoxicity against human Huh-7 cells incubated for 24 hrs by MTT assay. It counts as functional, cell-based. Particulars: Huh-7, 24 h. For orientation: Tetrazolium assays rely on reduction of a dye to a coloured formazan, in cell work by metabolically active cells.
Test [10] has as its system HepG2. The test is described as follows: Cytotoxicity against human HepG2 cells incubated for 24 hrs by MTT assay. The test is classed as functional, cell-based. To be noted: HepG2, 24 h.
The target of test [11] is Protein cereblon/E3 ubiquitin-protein ligase Mdm2 (Homo sapiens) (UniProt Q00987+Q96SW2). Nature of the test: PROTAC activity at CRBN/MDM2 (unknown origin) assessed as degradation of MDM2 relative to control. It counts as protein assay.
Chain of Protein cereblon/E3 ubiquitin-protein ligase Mdm2 (Homo sapiens) (Q00987 whole entry, looked up): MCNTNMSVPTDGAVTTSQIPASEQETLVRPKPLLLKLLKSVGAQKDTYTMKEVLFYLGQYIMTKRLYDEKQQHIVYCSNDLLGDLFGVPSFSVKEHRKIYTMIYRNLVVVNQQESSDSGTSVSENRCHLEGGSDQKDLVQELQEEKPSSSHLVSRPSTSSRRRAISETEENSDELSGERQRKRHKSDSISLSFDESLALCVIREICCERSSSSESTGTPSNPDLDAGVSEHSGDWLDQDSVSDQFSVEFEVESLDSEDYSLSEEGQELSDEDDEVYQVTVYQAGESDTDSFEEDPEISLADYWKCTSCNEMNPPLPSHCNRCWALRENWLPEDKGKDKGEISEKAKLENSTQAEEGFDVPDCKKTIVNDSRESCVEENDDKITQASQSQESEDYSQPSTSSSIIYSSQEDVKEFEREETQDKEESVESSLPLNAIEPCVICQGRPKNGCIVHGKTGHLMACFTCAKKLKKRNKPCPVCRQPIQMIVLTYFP
Chain of Protein cereblon/E3 ubiquitin-protein ligase Mdm2 (Homo sapiens) (Q96SW2 whole entry, looked up): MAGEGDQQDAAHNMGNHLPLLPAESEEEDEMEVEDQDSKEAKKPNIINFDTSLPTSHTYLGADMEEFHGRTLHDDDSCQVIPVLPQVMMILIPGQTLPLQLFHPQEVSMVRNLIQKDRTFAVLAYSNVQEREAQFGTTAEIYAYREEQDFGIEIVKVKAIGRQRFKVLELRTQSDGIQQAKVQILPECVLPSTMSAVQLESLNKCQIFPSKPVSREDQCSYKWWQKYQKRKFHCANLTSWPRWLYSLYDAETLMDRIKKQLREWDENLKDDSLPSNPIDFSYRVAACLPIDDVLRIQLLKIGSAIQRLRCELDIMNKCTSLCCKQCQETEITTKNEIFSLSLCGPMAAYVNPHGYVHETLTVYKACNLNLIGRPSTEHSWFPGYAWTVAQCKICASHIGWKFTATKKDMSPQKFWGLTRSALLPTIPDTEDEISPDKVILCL
Test [12] relates to A549. The test is described as follows: Cytotoxicity against human A549 cells measured after 24 hrs by MTT assay. It counts as functional, cell-based. Particulars: A549, 24 h.
In test [13] the test system is Huh-7. Nature of the test: Cytotoxicity against human Huh-7 cells measured after 24 hrs by MTT assay. The test is classed as functional, cell-based. Particulars: Huh-7, 24 h.
The subject of test [14] is HepG2. Nature of the test: Cytotoxicity against human HepG2 cells measured after 24 hrs by MTT assay. The test is classed as functional, cell-based. To be noted: HepG2, 24 h.
In test [15] the target is E3 ubiquitin-protein ligase RNF114 (Homo sapiens, UniProt Q9Y508). The test is described as follows: Inhibition of RNF114 (unknown origin).
Chain of E3 ubiquitin-protein ligase RNF114 (Q9Y508 whole entry): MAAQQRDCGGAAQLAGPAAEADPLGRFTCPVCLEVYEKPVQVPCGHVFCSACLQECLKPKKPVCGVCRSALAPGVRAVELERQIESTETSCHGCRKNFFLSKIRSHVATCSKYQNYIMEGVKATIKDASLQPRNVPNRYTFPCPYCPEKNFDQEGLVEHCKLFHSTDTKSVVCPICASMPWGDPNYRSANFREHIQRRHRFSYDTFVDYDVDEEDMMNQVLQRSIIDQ
Test [16] addresses E3 ubiquitin-protein ligase RNF114/Bromodomain-containing protein 4 (Homo sapiens, UniProt O60885+Q9Y508). The test is described as follows: PROTAC activity at RNF114/BRD4 (unknown origin) assessed as degradation of BRD4 incubated for 30 mins SDS-PAGE based fluorescence analysis.
For a further test, the system named is HeLa. The test is described as follows: Cytotoxicity against human HeLa cells incubated for 72 hrs by CCK-8 assay. It counts as functional, cell-based.
Another test concerns HFF-1. Nature of the test: Cytotoxicity against human HFF-1 cells incubated for 72 hrs by CCK-8 assay. It counts as functional, cell-based. Particulars: HFF-1, 72 h.
A further test concerns SK-MEL-5. Nature of the test: In vivo antitumor activity against human SK-MEL-5 cells xenografted in BALB/c nude mouse administered intraperitoneally every 2 days for 17 days. The test is classed as functional, organism-based. Background: In xenograft studies the graft and the host belong to different species.
The target of the next test is Protein cereblon/Basigin (Homo sapiens, UniProt P35613+Q96SW2). The test is described as follows: PROTAC activity at CRBN/CD147 (unknown origin) assessed as degradation of CD147. The test is classed as protein assay.
Chain of Protein cereblon/Basigin (P35613 whole entry): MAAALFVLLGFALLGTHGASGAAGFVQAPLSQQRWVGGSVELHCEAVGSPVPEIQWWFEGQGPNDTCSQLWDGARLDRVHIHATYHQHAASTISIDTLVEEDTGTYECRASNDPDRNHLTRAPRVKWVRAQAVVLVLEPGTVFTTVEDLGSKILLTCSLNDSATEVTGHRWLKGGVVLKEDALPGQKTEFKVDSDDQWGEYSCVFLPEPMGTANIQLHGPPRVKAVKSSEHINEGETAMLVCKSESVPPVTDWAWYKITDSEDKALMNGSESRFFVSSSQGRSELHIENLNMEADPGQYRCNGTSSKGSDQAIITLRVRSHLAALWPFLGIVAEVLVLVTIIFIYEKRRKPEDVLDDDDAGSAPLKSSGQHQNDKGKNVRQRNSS
Chain of Protein cereblon/Basigin (Q96SW2 whole entry): as the sequence (Q96SW2 whole entry, looked up) above

A value given as a limit tells only on which side of the number the result lay.

The term IC50 denotes the concentration that inhibits the measured activity by half. As a reminder, the DC50 is the midpoint of the concentration-degradation curve. As usually defined, the Emax is the size of the effect at its maximum, as opposed to the concentration needed.

Chain of E3 ubiquitin-protein ligase RNF114/Bromodomain-containing protein 4 (Q9Y508 whole entry, looked up, other chains not shown): as the sequence (Q9Y508 whole entry) above
Chain of Cyclin-dependent kinase 9 (P50750 whole entry): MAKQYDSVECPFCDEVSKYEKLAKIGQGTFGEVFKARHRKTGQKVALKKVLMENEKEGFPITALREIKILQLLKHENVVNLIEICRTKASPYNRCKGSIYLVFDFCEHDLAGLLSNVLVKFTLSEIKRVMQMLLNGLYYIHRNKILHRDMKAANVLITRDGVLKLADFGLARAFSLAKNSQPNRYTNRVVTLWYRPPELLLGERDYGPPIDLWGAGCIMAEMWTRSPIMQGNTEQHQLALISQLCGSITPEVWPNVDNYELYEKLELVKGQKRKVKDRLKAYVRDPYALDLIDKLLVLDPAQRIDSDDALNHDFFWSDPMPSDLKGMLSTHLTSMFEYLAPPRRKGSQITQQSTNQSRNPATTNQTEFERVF
Chain of von Hippel-Lindau disease tumor suppressor/Estrogen receptor (P03372 whole entry): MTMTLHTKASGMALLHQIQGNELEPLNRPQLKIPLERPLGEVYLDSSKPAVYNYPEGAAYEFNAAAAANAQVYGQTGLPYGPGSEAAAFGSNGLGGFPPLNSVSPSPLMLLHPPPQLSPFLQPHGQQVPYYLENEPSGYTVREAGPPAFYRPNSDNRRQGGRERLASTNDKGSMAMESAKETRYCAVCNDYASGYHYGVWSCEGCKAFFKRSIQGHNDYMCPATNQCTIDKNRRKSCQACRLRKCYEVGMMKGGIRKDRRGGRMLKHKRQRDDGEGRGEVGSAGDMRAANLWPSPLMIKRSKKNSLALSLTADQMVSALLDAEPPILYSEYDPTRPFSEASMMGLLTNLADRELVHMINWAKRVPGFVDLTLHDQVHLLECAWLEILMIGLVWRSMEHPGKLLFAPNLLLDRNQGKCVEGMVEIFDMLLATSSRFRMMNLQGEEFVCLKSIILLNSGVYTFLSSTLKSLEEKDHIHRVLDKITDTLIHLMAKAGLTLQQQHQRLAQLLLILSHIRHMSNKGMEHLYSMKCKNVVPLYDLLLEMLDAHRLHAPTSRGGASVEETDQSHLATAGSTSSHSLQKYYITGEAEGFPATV
Chain of von Hippel-Lindau disease tumor suppressor/Estrogen receptor (P40337 whole entry): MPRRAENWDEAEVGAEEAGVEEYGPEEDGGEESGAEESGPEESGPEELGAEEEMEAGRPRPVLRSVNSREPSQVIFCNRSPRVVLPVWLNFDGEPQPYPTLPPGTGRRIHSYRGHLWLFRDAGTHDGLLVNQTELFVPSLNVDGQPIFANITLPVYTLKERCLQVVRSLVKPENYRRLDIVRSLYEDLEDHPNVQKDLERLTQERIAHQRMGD
Chain of von Hippel-Lindau disease tumor suppressor/G-protein coupled estrogen receptor 1 (Q99527 whole entry): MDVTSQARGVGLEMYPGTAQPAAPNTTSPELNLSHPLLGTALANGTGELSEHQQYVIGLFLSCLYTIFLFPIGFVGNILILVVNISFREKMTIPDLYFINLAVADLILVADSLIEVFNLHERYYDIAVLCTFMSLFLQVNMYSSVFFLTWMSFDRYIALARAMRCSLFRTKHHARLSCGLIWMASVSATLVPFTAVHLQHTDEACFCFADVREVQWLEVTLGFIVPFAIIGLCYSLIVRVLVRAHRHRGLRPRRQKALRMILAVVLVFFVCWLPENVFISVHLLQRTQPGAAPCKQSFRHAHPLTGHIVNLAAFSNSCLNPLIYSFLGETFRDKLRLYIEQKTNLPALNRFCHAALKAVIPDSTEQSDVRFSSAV
Chain of von Hippel-Lindau disease tumor suppressor/G-protein coupled estrogen receptor 1 (P40337 whole entry): as the sequence (P40337 whole entry) above

Take `O=C1CCC(N2C(=O)c3cccc(NC(=O)CCCCCCCn4cc(COc5c(O)cc(O)c6c(=O)cc(-c7ccccc7)oc56)nn4)c3C2=O)C(=O)N1` (configuration not stated): the half-maximal inhibitory concentration (IC50) is 523 nM in test [1] and 17 nM in the test on MCF7 [2].
In test [3], `CC1=CC(=O)[C@H]2/C(C=O)=C\C[C@H]3[C@@H]([C@@H](C)/C=C\C=C/C(=O)OCCOCCOCCOC(=O)CC45CC6CC(CC(C6)C4)C5)CC[C@]3(C)C[C@H]12` registered a 50% degradation concentration (DC50) of 1000 nM.
In the case of `Cc1ncsc1-c1ccc([C@H](C)NC(=O)[C@@H]2CC(OC(=O)CCCCn3cc(CNC(=O)CC[C@H](NC(=O)c4ccc(NCc5cnc6[nH]c(N)nc(=O)c6n5)cc4)C(=O)O)nn3)CN2C(=O)[C@H](NC(=O)CCCCCCCCCCNCCCONC(=O)c2ccc(F)c(F)c2Nc2ccc(I)cc2F)C(C)(C)C)cc1` (some centres not stated), in the test on HT-29, the 50% inhibitory concentration (IC50) was found to be 436 nM.
As to `CC(=O)N1N=CC2C[C@@]3(C)C(=CC[C@H]4[C@@H]5CC[C@H]([C@H](C)CCC(=O)N6CCOCC6)[C@@]5(C)CC[C@@H]43)C(C)(C)C21` (some centres not stated), half-maximal degradation in [4] (DC50) was put at 220 nM.
Regarding `Cc1ncsc1-c1ccc(CNC(=O)[C@@H]2C[C@@H](O)CN2C(=O)[C@@H](NC(=O)COCCOCCOCCOCC(=O)O[C@H]2CC[C@H]3[C@@H]4CCc5cc(O)ccc5[C@H]4CC[C@]23C)C(C)(C)C)cc1`, the DC50 in [5] was 10000 nM; in [6], 100000 nM. Further, the IC50 in the test with MCF7 [7] came to 9000 nM; in the test with SK-BR-3, 10900 nM.
Turning to `C[C@H]1[C@H](C)CCC2(C(=O)NCCOCCOCCOCCNc3cccc4c3C(=O)N(C3CCC(=O)NC3=O)C4=O)CC[C@]3(C)C(=CC[C@@H]4[C@@]5(C)CCC(O)C(C)(C)[C@@H]5CC[C@]43C)[C@H]12` (some centres not stated), the half-maximal inhibitory concentration (IC50) worked out at 230 nM in the test with A549 [8]; 230 nM with Huh-7 [9]; 230 nM with HepG2 [10]; 230 nM with A549 [12]; 390 nM with Huh-7 [13]; 380 nM with HepG2 [14]. Further, the Emax in [11] came out at 75%.
As to `COC(=O)C[C@H]1[C@]2(C)C3=C(C)C(c4ccoc4-c4ccc(C(=O)NCCCNC(=O)C[C@@H]5N=C(c6ccc(Cl)cc6)c6c(sc(C)c6C)-n6c(C)nnc65)cc4)C[C@H]3C[C@@H]2[C@@H]2OC(=O)[C@]3(C)C=CC(=O)[C@@]1(C)[C@@H]23` (some centres not stated), in [15], the concentration for half-maximal inhibition (IC50) turned out to be 240 nM. Moreover, in test [16], the DC50 worked out at 10 nM.
On to `Cc1ncsc1-c1ccc([C@H](C)NC(=O)[C@@H]2CC(OC(=O)CCCCn3cc(CNC(=O)CC[C@H](NC(=O)c4ccc(NCc5cnc6[nH]c(N)nc(=O)c6n5)cc4)C(=O)O)nn3)CN2C(=O)[C@@H](NC(=O)COCCCOCCNC(=O)C[C@@H]2N=C(c3ccc(Cl)cc3)c3c(sc(C)c3C)-n3c(C)nnc32)C(C)(C)C)cc1` (some centres not stated), for which the IC50 in the test on HeLa is 246 nM; with HFF-1, more than 10000 nM.
For the compound `COC(=O)C1=CC[C@]23CC[C@H]([C@@]2(OC(C)=O)CC1)[C@](C)(/C=C/C=C(\C)C(=O)NCCNc1cccc2c1C(=O)N(C1CCC(=O)NC1=O)C2=O)OC3=O` (some centres not stated), the IC50 is 6230 nM in the test on SK-MEL-5 and 6720 nM on Protein cereblon/Basigin.
